Laboratory results reported in PMC8701324, “Structural Insight into the Mechanism of PALB2 Interaction with MRG15” (Genes, 2021).
Values belong to the substance of their own block, whether it stands above or below them. Where no end group is shown, it is not given here. The star is where a group is joined. 6xHis = N-terminal hexahistidine tag, N[C@@H](Cc1c[nH]cn1)C(=O)N[C@@H](Cc1c[nH]cn1)C(=O)N[C@@H](Cc1c[nH]cn1)C(=O)N[C@@H](Cc1c[nH]cn1)C(=O)N[C@@H](Cc1c[nH]cn1)C(=O)N[C@@H](Cc1c[nH]cn1)C(=O)*

Columns and labels:
[1] = molecular target: T1, MRG15^155−323 (MRG domain) (Homo sapiens, UniProt Q9UBU8); test: Fluorescence anisotropy binding of FAM-PALB2 peptide
T1 construct: The MRG15 MRG domain, encompassing amino acids 155–323, was cloned into the pET28b^+-based pSMT3 vector; 6xHis-SUMO (N, cleaved yes); made in house; host or cells: E. coli BL21*
Experimental: Fluorescence anisotropy binding and competition assays were performed using black 384-well plates (Corning Inc., Corning, NY, USA) and a Synergy Neo2 plate reader (BioTek, Winooski, VT, USA). Binding assays were conducted by serially diluting the MRG15 fragment from 10 µM to 0.6 nM. A 40 µL solution of 20 µM MRG was serially diluted in 20 µL of 25 mM HEPES pH8.0, 1 mM TCEP, 10% DMSO, and 200 mM NaCl. A total of 20 µL of a 20 nM FAM-PALB2^597−630 solution was then added to each well for a final reaction volume of 40 µL and a final PALB2 concentration of 10 nM. The plate was shaken for 2 min and incubated for 15 min. Fluorescence anisotropy was measured with 485/20 nm excitation and 528/20 nm emission using Gen5.0 (BioTek) software. Kd was calculated with GraphPad Prism software by fitting the data with a non-linear regression analysis using a standard four-parameter logistic equation to identify Kd. […] R^2 is determined by the Prism software by computing the sum of the squares of the distances of the points from the best-fit curve determined by a nonlinear regression model.
Proteins interact with the MRG domain through a conserved FxLP motif. […] The binding affinity of this peptide to MRG15 was measured using the polarization anisotropy method with fluorescein-labeled PALB2^597−630 peptide (FAM-PALB2, Genscript Biotech, Piscataway, NJ, USA). […]

MRG15^155−323 = test: Ni-NTA pull-down of MRG15 by 6xHis-tagged PALB2 peptides; type: binding; details: preliminary qualitative experiment; Ni-NTA agarose, SDS-PAGE
Experimental: Ni-NTA beads (200 µL of 50% slurry) were equilibrated with Buffer B (25 mM HEPES pH 7.5, 10% glycerol, 2 mM CHAPS and 300 mM NaCl). 1 mL of PALB2 peptide at concentration 0.1 mg·mL^−1 was bound to Ni-NTA beads, and excess peptides were washed off with Buffer B (1 mL). A total of 1 mL of 0.1 mg·mL^−1 MRG15^155−323 was added to the beads and incubated for 30 min. Beads were washed 3 times with Buffer B with 20 mM imidazole. Protein complexes were eluted with Buffer B with 250 mM imidazole. MRG15^155−323 alone, mixed with Ni-NTA beads without any peptide bound, was used as control to eliminate non-specific binding. Samples were analyzed by SDS-PAGE.
Proteins interact with the MRG domain through a conserved FxLP motif. All known structures of MRG complexes reveal significant contributions to the binding of extended regions up- and downstream of the FxLP motif. Flanking regions have low sequence and structural conservation, making it challenging to predict which regions of PALB2 around the FQLP sequence motif (amino acids 612–615) are involved in the interaction. […] The binding affinity of this peptide to MRG15 was measured using the polarization anisotropy method with fluorescein-labeled PALB2^597−630 peptide (FAM-PALB2, Genscript Biotech, Piscataway, NJ, USA). […]

MRG15 (MRG domain) = molecular target: T2, MRG15 (MRG domain) (Homo sapiens, UniProt Q9UBU8); test: Fluorescence anisotropy competition assay: displacement of WT FAM-PALB2; type: binding; details: competition with WT FAM-PALB2, relative to WT
T2 construct: The MRG15 MRG domain, encompassing amino acids 155–323, was cloned into the pET28b^+-based pSMT3 vector; 6xHis-SUMO (N, cleaved yes); made in house; host or cells: E. coli BL21*
Experimental: For competition assays, mutant PALB2^597−630 peptides (Genscript Biotech, Piscataway, NJ, USA) were dissolved in DMSO and serially diluted from 10 µM to 0.6 nM in 20 µL of 25 mM HEPES pH 8.0, 1 mM TCEP, 10% DMSO, and 200 mM NaCl. A total of 40 nM MRG15 was mixed with 10 nM PALB2-FAM and incubated for 15 min at room temperature (RT). 20 µL of the MRG15 with FAM-PALB2 was then added to each well, resulting in a final concentration of […]. The total reaction volume was 40 µL. The plate was then shaken for 2 min and incubated for 15 min before the fluorescence anisotropy was measured as above. The inhibition constant Ki was calculated similarly to Kd (above).
Mutations of several residues in the MRG-binding region of PALB2 were found in breast cancer patients, including Asp616His, Pro615Ser and Pro621Thr mutations (Figure 5A,B). We analyzed the effect of these mutations on PALB2 interaction with MRG by a competition assay (Figure 5C,D). An MRG complex with 10 nM WT PALB2 peptide was formed, and the comparative affinity of mutants (Ki) was assayed by the dissociation rate of FAM-PALB2 from MRG15 upon titration by a mutant peptide. In addition, the contribution of core hydrophobic amino acids was assayed by alanine substitution. None of the peptides with a core hydrophobic amino acid substitution were able to compete with wtPALB2 binding. […] Substitution of Asp616 with histidine reduced the affinity by a factor of 2. […] Substitution of this proline in the middle of an α-helical turn may increase flexibility and result in a tighter binding of αH2 to the hydrophobic pocket of MRG.

T2 sequence (Q9UBU8 194-362): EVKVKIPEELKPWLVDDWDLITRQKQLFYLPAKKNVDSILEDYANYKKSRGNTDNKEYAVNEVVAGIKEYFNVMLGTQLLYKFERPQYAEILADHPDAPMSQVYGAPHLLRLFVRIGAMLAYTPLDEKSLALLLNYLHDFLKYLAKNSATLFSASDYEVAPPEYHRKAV
T1 sequence (Q9UBU8 194-362): as above

binding affinity to MRG domain [1]: nanomolar affinity
Substance: 597 630: PALB2 fragment encompassing amino acids 597–630 with the N-terminal 6xHis tag; crystallized with MRG15 (PDB ID 7S4A) (6xHis-MLSLKQLLSFLSITDFQLPDEDFGPLKLEKVKSC)
complex formation with MRG15 in pull-down (MRG15^155−323): sufficient for the formation of a stable complex

effect on binding affinity (MRG15 (MRG domain)): increased the binding affinity
Substance: MLSLKQLLSFLSITDFQLPDEDFGTLKLEKVKSC [P621T]

factor by which affinity is reduced vs WT (MRG15 (MRG domain); 'by a factor of'): 2
Substance: MLSLKQLLSFLSITDFQLPHEDFGPLKLEKVKSC [D616H]

reduction in binding affinity vs WT (MRG15 (MRG domain)): 5 fold
Substance: MLSLKQLLSFLSITDFQLSDEDFGPLKLEKVKSC [P615S]
